Values of other authors as cited in patent US20230130225A1, “METHOD OF TREATING AMYOTROPHIC LATERAL SCLEROSIS WITH MYELOPEROXIDASE INHIBITOR” (Biohaven Therapeutics Ltd., priority 2020, published 2023).
Where two headings read alike, the source gives them in different places.

Assays:
[1] = healthy subjects, multiple dosages of up to 900 mg BID
[2] = participants with Parkinson's disease and MSA, dosages of up to 600 mg BID for 8-12 weeks
[3] = target: T1, MPO (Homo sapiens, UniProt P05164); conditions: 600 mg BID, Phase 2 studies
T1 construct: from tissue; host or cells: plasma of clinical study participants
T1 sequence (P05164 279-745 limits assumed): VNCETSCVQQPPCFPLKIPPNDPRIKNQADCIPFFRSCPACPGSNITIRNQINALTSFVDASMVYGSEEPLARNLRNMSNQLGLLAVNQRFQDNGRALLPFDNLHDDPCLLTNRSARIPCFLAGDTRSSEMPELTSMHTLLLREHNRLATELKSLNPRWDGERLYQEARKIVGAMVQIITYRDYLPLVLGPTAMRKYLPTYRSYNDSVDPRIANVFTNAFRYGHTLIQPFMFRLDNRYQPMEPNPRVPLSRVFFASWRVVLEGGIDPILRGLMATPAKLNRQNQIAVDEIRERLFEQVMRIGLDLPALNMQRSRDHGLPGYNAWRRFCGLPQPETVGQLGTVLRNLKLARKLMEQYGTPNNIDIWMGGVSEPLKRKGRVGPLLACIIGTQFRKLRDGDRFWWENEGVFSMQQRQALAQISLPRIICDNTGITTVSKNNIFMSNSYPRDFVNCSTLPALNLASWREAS
T1 sequence (P05164 165-273 limits assumed): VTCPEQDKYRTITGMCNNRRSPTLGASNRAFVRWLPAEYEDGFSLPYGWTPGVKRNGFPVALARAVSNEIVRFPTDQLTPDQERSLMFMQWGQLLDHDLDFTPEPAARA

[4] = tested on: TSPO; conditions: 600 mg BID, Phase 2 studies
[5] = subjects with MSA, 12 weeks, 600 mg BID

MPO activity in plasma [3]: decreased
TSPO binding on brain PET imaging (microglial activation/neuroinflammation) [4]: reduced
Compound: CC(C)OCCn1c(=S)[nH]c(=O)c2[nH]ccc21 [verdiperstat, 1-(2-isopropoxyethyl)-2-thioxo-1,2,3,5-tetrahydro-pyrrolo[3,2-d]pyrimidin-4-one]
safety and tolerability [1]: generally safe and well tolerated
safety and tolerability [2]: generally safe and well tolerated
trends on clinical efficacy measures [5]: favorable, dose-dependent trends
